This series has as its system methylated gene promoters in fecal DNA. The experiment in a line: Real-time MSP on stool (fecal) DNA. More on the design: species or system human. To be noted: fecal samples; for Sens adenoma: 13 samples; for Sens CRC: 15 samples; for Spec: 19 samples. The source says:
A standardized multicenter screening trial (The Netherlands) was initiated in 2006. In this trial, non symptomatic subjects aged 50 or above are screened with colonoscopy, FOBT and real-time MSP using DNA from stool and blood. In addition, prospectively collected stool samples from multiple centers (Germany and The Netherlands) were used. In these trials, symptomatic patients, attending a Gastroenterology clinic and ultimately diagnosed with CRC, provided a stool sample for use in real-time MSP. From the ongoing trials 147 stool samples were available for the present study. 3 main categories of stool samples were used: 67 samples with no suspicious findings, 58 adenomas and 22 samples from patients covering all stages of CRC, with 90% representing early stage disease.
After defecation in a special bucket, patients added 250 ml of stool homogenization buffer (Amresco, Solon, Ohio, USA) to the sample. Samples were shipped to the laboratory and further processed within 72 hours after defecation. Stool homogenization buffer was added to a ratio 1:7, and the samples were homogenized and aliquoted in portions of 32 ml.
Single aliquots (32 ml containing the equivalent of 4 g of stool) were centrifuged for 5 minutes at 2540 rcf at 20° C. The supernatant was retained and centrifuged a second time (10 minutes at 16500 rcf at 4° C.). 22 ml of the supernatant obtained following the second centrifugation step was incubated with 5 μl Rnase A for 60 minutes at 37° C. Total DNA was then SodiumAcetate (pH 5.2)-isopropanol precipitated and washed with 70% ethanol. The DNA was resuspended in 4 ml 1×TE (pH 7.4). 400 μl 10× buffer (240 mM EDTA (pH=8.0), 750 mM NaC), 400 μl 10% SDS, and 20 μl Proteinase K (20 mg/ml) was added and the samples were incubated at 48° C. overnight at constant shaking (225 RPM). After centrifugation (3000 RCF for 30 seconds at room temperature), 5 ml of Phenol:Chloroform:Isoamylalcohol (25:24:1, v/v:Invitrogen) was added and incubated for 10 minutes at room temperature shaking at 225 RPM and centrifuged for 5 minutes at 3000 RCF. The aqueous layer was transferred to a new tube containing 5 ml of Phenol:Chloroform:Isoamylalcohol. Again, the samples were incubated for 10 minutes at room temperature shaking at 225 RPM and centrifuged for 5 minutes at 3000 RCF at room temperature. The aqueous layer was transferred to a new tube and DNA was precipitated by adding 500 μl 7.5 M Ammonium Acetate, 5 μl glycogen and 10 ml of cold 100% Ethanol (−20° C.), further incubated at −20° C. for at least 1 hour and centrifuged at 15000 RCF for 30 minutes at 4° C. Pellets were washed with 3.5 ml freshly prepared 70% Ethanol and air dried. Pellets were finally resuspended in 2 ml of LoTE pH 8.0 and stored at −80° C., until further processing.
An upscaled DNA modification step was applied to 32 μg of the obtained DNA. 16 Aliquots of 2 μg of DNA were subjected to bisulfite modification in 96-wells format on a pipetting robot (Tecan), using the EZ-96DNA Methylation kit (Zymo Research), according to the manufacturer's protocol. Basically, aliquots of 45 μl were mixed with 5 μl of M-Dilution Buffer and incubated at 37° C. for 15 minutes shaking at 1100 rpm. Then 100 μl of the diluted CT Conversion Reagent was added and samples were incubated at 70° C. for 3 hours, shaking at 1100 rpm in the dark. After conversion, the samples were desalted by incubation on ice for 10 minutes and addition of 400 μl of M-Binding buffer. The samples were loaded on a Zymo-Spin I Column in a collection tube and after centrifugation washed with 200 μl of M-Wash Buffer. 200 μl of M-Desulphonation Buffer was put onto the column and incubated at room temperature for 15 minutes. After centrifugation of the columns, they were washed twice with 200 μl of M-Wash Buffer. Finally, the DNA was washed from the column in 50 μl Tris-HCl 1 mM pH8.0 and stored at −80° C., until further processing.

With “GATA5 (DNA AGTTCGTTTTTAGGTTAGTTTTCGGC; listed as DNA, chemistry not given here)”, the Sens adenoma is given as 0%, the “Sens CRC” value was found to be 27% and the Spec was found to be 100%.

As to “SFRP1 (DNA TGTAGTTTTCGGAGTTAGTGTCGCGC; listed as DNA, chemistry not given here)”, the Sens adenoma is 8%, the “Sens CRC” value is on record as 67% and the Spec turned out to be 100%.
